Source: patent US8394969B2, “Cyclic benzimidazole derivatives useful as anti-diabetic agents” (Merck Sharp & Dohme Corp., priority 2008, dated 2013)
Where a name gives a salt, the structure may show the parent alone.

Target: recombinant human AMPK complex 1 (containing α1β1γ1) (Homo sapiens, UniProt Q13131+Q9Y478)
Test: […] (in vitro AMPK activation assay)
Type: biochemical
Details: read-out: % Maximum AMP Activation of human AMPK Complex 1, recombinant human AMPK complex 1 (α1β1γ1); basal activity subtracted

Chain of recombinant human AMPK complex 1 (containing α1β1γ1) (Q13131 whole entry): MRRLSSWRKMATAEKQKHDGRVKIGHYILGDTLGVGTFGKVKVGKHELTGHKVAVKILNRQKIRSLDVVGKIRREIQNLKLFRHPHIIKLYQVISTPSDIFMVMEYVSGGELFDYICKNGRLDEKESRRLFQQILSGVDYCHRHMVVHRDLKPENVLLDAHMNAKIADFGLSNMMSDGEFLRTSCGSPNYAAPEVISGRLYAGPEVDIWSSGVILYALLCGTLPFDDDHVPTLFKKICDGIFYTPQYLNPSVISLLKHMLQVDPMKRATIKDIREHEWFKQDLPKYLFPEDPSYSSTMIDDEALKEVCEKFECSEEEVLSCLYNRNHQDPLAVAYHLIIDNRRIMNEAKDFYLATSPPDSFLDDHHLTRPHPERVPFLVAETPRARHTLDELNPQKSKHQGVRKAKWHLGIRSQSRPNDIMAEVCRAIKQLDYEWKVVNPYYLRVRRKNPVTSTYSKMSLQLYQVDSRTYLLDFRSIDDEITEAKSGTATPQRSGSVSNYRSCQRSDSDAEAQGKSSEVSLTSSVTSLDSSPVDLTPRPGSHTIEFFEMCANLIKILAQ
Chain of recombinant human AMPK complex 1 (containing α1β1γ1) (Q9Y478 whole entry): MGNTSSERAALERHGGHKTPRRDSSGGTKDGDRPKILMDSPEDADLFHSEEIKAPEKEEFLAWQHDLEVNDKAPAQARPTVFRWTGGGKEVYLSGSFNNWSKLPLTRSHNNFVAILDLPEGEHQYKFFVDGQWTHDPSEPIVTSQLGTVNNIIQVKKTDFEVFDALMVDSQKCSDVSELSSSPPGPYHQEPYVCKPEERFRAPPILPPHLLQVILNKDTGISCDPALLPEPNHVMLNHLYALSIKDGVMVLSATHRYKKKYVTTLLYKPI
Chain of recombinant human AMPK complex 1 (containing α1β1γ1) (P54619 whole entry partner): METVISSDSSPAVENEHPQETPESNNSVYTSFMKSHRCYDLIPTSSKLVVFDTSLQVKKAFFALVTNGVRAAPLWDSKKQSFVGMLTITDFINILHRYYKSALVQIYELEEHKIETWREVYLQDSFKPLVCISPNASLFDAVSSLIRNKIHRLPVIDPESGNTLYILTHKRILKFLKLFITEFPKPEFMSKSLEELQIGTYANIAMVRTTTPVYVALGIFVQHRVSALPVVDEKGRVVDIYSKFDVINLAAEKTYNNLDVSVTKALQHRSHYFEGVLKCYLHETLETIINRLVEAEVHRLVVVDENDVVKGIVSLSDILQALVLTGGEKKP

Structure (SMILES)	Emax [%]
O=C(O)c1cccc(Oc2nc3cc(-c4ccc(-c5ccccc5)cc4)c(Cl)cc3[nH]2)c1 [Example 56, 3-(5-biphenyl-4-yl-6-chloro-1H-benzo-imidazol-2-yloxy)-benzoic acid, ammonium salt]	> 80

Same assay, conditions: recombinant human AMPK complex 1 (α1β1γ1); basal activity subtracted; read-out: % Maximum AMP Activation of human AMPK Complex 1

Structure (SMILES)	Emax [%]
COC(=O)c1cc(Oc2nc3cc(C#CC4(O)CCCC4)c(Cl)cc3[nH]2)ccc1C [Example 137, 5-[6-Chloro-5-(1-hydroxy-cyclopentylethynyl)-1H-benzoimidazol-2-yloxy]-2-methyl-benzoic acid methyl ester]	> 80
Clc1cc2[nH]c(Oc3cccc(-c4nn[nH]n4)c3)nc2cc1-c1ccc(-c2ccccc2)cc1 [Example 33, 5-Biphenyl-4-yl-6-chloro-2-[3-(2H-tetrazol-5-yl)-phenoxy]-1H-benzoimidazol]	> 80
Cc1ccc(Oc2nc3cc(-c4cnc5c(c4)OCCN5C)c(Cl)cc3[nH]2)cc1C(=O)O [Example 143, 2-(3-carboxy-4-methylphenoxy)-6-chloro-5-(4-methyl-3,4-dihydro-2H-pyrido[3,2-b] [1,4]oxazin-7-yl)-1H-3,1-benzimidazol-3-ium trifluoroacetate]	> 80
Cc1ccc(Oc2nc3cc(-c4ccc(C(C)C)c5c4ccn5C)c(Cl)cc3[nH]2)cc1C(=O)O [Example 272, 5-[6-Chloro-5-(7-isopropyl-1-methyl-1H-indol-4-yl)-1H-benzoimidazol-2-yloxy]-2-methyl-benzoic acid]	> 80
Cc1cc(Oc2nc3cc(-c4ccc(-c5ccccc5)cc4)c(Cl)cc3[nH]2)c(C)c(C(=O)O)c1 [Example 213, 3-(5-Biphenyl-4-yl-6-chloro-1H-benzoimidazol-2-yloxy)-2,5-dimethyl-benzoic acid]	> 80
CC(=O)N1CCc2cc(-c3cc4nc(Oc5ccc(C)c(C(=O)O)c5)[nH]c4cc3Cl)ccc21 [Example 306, 5-[5-(1-Acetyl-2,3-dihydro-1H-indol-5-yl)-6-chloro-1H-benzoimidazol-2-yloxy]-2-methyl-benzoic acid]	> 80
Cc1ccc(Oc2nc3cc(-c4ccc(C(N)=O)cc4)c(Cl)cc3[nH]2)cc1C(=O)O [Example 242, 5-[5-(4-Carbamoyl-phenyl)-6-chloro-1H-benzoimidazol-2-yloxy]-2-methyl-benzoic acid]	> 80
Cc1c(Oc2nc3cc(-c4ccc5c(ccn5C)c4)c(Cl)cc3[nH]2)cccc1C(=O)O [Example 218, 3-[6-Chloro-5-(1-methyl-1H-indol-5-yl)-1H-benzoimidazol-2-yloxy]-2-methyl-benzoic acid]	> 80
Cc1ccc(Oc2nc3cc(-c4ccc5c(ccn5CC5CC5)c4)c(Cl)cc3[nH]2)cc1C(=O)O [Example 252, 5-[6-Chloro-5-(1-cyclopropylmethyl-1H-indol-5-yl)-1H-benzoimidazol-2-yloxy]-2-methyl-benzoic acid]	> 80
Cc1ccc(Oc2nc3cc(C#Cc4ccc(-c5cn[nH]c5)cc4)c(Cl)cc3[nH]2)cc1C(=O)O [Example 82, 5-{6-Chloro-5-[4-(1H-pyrazol-4-yl)-phenylethynyl]-1H-benzoimidazol-2-yloxy}-2-methyl-benzoic acid]	> 80
Cc1ccc(Oc2nc3cc(-c4ccc(N5CCN(C(=O)OC(C)(C)C)CC5)nc4)c(Cl)cc3[nH]2)cc1C(=O)O [Example 175, 4-{5-[2-(3-Carboxy-4-methyl-phenoxy)-6-chloro-1H-benzoimidazol-5-yl]-pyridin-2-yl}-piperazine-1-carboxylic acid tert-butyl ester]	> 80
O=C(O)c1cccc(Nc2nc3cc(C#Cc4ccccc4)c(Cl)cc3[nH]2)c1 [Example 139, 3-(6-Chloro-5-phenylethynyl-1H-benzoimidazol-2-ylamino)-benzoic acid]	> 80
Cc1ccc(Oc2nc3cc(-c4ccc5c(C)cn(C(=O)OC(C)(C)C)c5c4)c(Cl)cc3[nH]2)cc1C(=O)O [Example 290, 6-[2-(3-Carboxy-4-methyl-phenoxy)-6-chloro-1H-benzoimidazol-5-yl]-3-methyl-indole-1-carboxylic acid tert butyl ester]	> 80
NC(=O)c1ccc(Oc2nc3cc(-c4ccc(-c5ccccc5)cc4)c(Cl)cc3[nH]2)cc1 [Example 30, 4-(5-Biphenyl-4-yl-6-chloro-1H-benzoimidazol-2-yloxy)-benzamide]	> 80
COC(=O)c1cc(Oc2nc3cc(-c4ccc(-c5ccc(=O)n(C)c5)cc4)c(Cl)cc3[nH]2)ccc1C [Example 170, 5-{6-Chloro-5-[4-(1-methyl-6-oxo-1,6-dihydro-pyridin-3-yl)-pheny1]-1H-benzoimidazol-2-yloxy}-2-methyl-benzoic acid methyl ester]	> 80
Cc1ccc(Oc2nc3cc(-c4ccc(-c5cccc(F)c5)cc4)c(Cl)cc3[nH]2)cc1C(=O)O [Example 185, 5-{[6-chloro-5-(3′-fluorobiphenyl-4-yl)-1H-benzimidazol-2-yl]oxy}-2-methylbenzoic acid]	> 80
Cc1ccc(Oc2nc3cc(-c4ccc5c(c4)CCN5)c(Cl)cc3[nH]2)cc1C(=O)O [Example 285, 5-[6-Chloro-5-(2,3-dihydro-1H-indol-5-yl)-1H-benzoimidazol-2-yloxy]-2-methyl-benzoic acid]	> 80
Cc1ccc(Oc2nc3cc(C#Cc4ccccc4Cl)c(Cl)cc3[nH]2)cc1C(=O)O [Example 115, 5-[6-Chloro-5-(2-chloro-phenylethynyl)-1H-benzoimidazol-2-yloxy]-2-methyl-benzoic acid]	> 80
Cc1ccc(Oc2nc3cc(-c4ccc5c(ccn5C)c4)c(F)cc3[nH]2)cc1C(=O)O [Example 249, 5-[6-Fluoro-5-(1-methyl-1H-indol-5-yl)-1H-benzoimidazol-2-yloxy]-2-methyl-benzoic acid]	> 80
Cc1ccc(Oc2nc3cc(-c4ccc5c(c4)CCN5CCO)c(Cl)cc3[nH]2)cc1C(=O)O [Example 319, 5-({6-chloro-5-[1-(2-hydroxyethyl)-2,3-dihydro-1H-indol-5-yl]-1 H-benzimidazol-2-yl}oxy)-2-methylbenzoic acid]	> 80
COC(=O)c1cc(Oc2nc3cc(C#Cc4ccccc4C)c(Cl)cc3[nH]2)ccc1C [Example 99, 5-(6-Chloro-5-o-tolylethynyl-1H-benzoimidazol-2-yloxy)-2-methyl-benzoic acid methyl ester]	> 80

Same assay, conditions: recombinant human AMPK complex 1 (α1β1γ1); read-out: EC50

Structure (SMILES)	EC50 [nM]
Cc1ccc(Oc2nc3cc(-c4ccc(-c5ccc(=O)n(C)c5)cc4)c(Cl)cc3[nH]2)cc1C(=O)O [Example 68, 5-({6-chloro-5-[4-(1-methyl-6-oxo-1,6-dihydropyridin-3-yl)phenyl]-1H-benzimidazol-2-yl}oxy)-2-methylbenzoic acid]	7
Cc1ccc(Oc2nc3cc(-c4ccc(N5CCCC5)cc4)c(Cl)cc3[nH]2)cc1C(=O)O [Example 231, 5-{[6-chloro-5-(4-pyrrolidin-1-ylphenyl)-1H-benzimidazol-2-yl]oxy}-2-methylbenzoic acid]	7
Cc1ccc(Oc2nc3c(F)c(-c4ccc5c(ccn5C)c4)c(F)cc3[nH]2)cc1C(=O)O [Example 228, 5-[4,6-Difluoro-5-(1-methyl-1H-indol-5-yl)-1H-benzoimidazol-2-yloxy]-2-methyl-benzoic acid]	2
Cc1ccc(Oc2nc3cc(-c4cc5ccn(CCO)c5cc4F)c(Cl)cc3[nH]2)cc1C(=O)O [Example 325, 5-({6-chloro-5-[6-fluoro-1-(2-hydroxyethyl)-1H-indol-5-yl]-1H-benzimidazol-2-yl}oxy)-2-methylbenzoic acid]	5
